Test results as given in US10633419B2, “Immunomodulators” (BRISTOL-MYERS SQUIBB COMPANY, priority 2014, dated 2020).
Starred links: 1 amine or outer side, 2 acyl side, 3 side chain; linkers in the order of their positions; H or OH if unused. Positions of bridges follow the written chain, without caps; N, C: chain ends. Non-standard residues stand in square brackets, D forms with d. Residues, ends and D or L forms follow the SMILES beside them. Groups on a side chain read outwards from the residue. *: point of attachment. X6 = O=C(O)CCCCCCCCCCCCCCCCC(=O)N[C@@H](CCC(=O)NCCCOCCOCCOCCCN*)C(=O)O; Trp(1-CH2COOH) = N[C@@H](Cc1cn(CC(=O)O)c2ccccc12)C(=O)O; C18 diacid = O=C(O)CCCCCCCCCCCCCCCCC(=O)*; NH(CH2)16COOH = O=C(O)CCCCCCCCCCCCCCCCN*; Phe(4-F) = N[C@@H](Cc1ccc(F)cc1)C(=O)O; γGlu = O=C(O)[C@H](CCC(=O)[*:2])N[*:1]; d(cisHyp) = O=C(O)[C@H]1C[C@@H](O)CN1; Palmitoyl = CCCCCCCCCCCCCCCC(=O)*; Hyp = O=C(O)[C@@H]1C[C@@H](O)CN1; NHhexadecyl = CCCCCCCCCCCCCCCCN*; NMeNle = CCCC[C@H](NC)C(=O)O; Pip = O=C(O)[C@@H]1CCCCN1; NMeA = CN[C@@H](C)C(=O)O; Pra = C#CC[C@H](N)C(=O)O; Aun = NCCCCCCCCCCC(=O)O; Dab = NCC[C@H](N)C(=O)O; Dap = NC[C@H](N)C(=O)O; Ava = NCCCCC(=O)O

The compounds below were run against T1, PD-L1 (Homo sapiens, UniProt Q9NZQ7) (assay: PD-1/PD-L1 Homogenous Time-Resolved Fluorescence (HTRF) binding assay (PD-1-Ig/PD-L1-His)). Settings: inhibition of PD-1-Ig binding to PD-L1-TVMV-His; value given as number; read-out: HTRF IC50.
T1 construct: hPDL1(19-239)-TVMV-His; made in house; host or cells: HEK293T
T1 sequence (Q9NZQ7 with tags, fused parts or gaps): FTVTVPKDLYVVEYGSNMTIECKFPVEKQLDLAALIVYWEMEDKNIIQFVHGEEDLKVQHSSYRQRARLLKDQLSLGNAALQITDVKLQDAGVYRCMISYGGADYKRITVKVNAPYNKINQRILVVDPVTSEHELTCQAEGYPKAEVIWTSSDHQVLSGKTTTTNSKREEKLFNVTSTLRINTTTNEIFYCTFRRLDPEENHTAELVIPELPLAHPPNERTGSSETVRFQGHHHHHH
In short: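 Inhibitors pre-incubated 15 min with PD-L1-His (10 nM final), then PD-1-Ig (20 nM final) added for 15 min in dPBS/0.1% BSA/0.05% Tween-20. Eu-cryptate anti-Ig (1 nM) and APC anti-His (20 nM) added, 30 min equilibration, 665/620 nm HTRF ratio read.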

Point of comparison: `CCCCCCCCCCCCCCCC(=O)N[C@@H](CCn1cc(C[C@H](NC(=O)CNC(=O)[C@@H]2CSCC(=O)N[C@@H](Cc3ccc(O)cc3)C(=O)N(C)[C@@H](C)C(=O)N[C@@H](CC(=O)O)C(=O)N3CCC[C@H]3C(=O)N[C@@H](Cc3c[nH]cn3)C(=O)N[C@@H](CCCCN)C(=O)N3C[C@H](O)C[C@H]3C(=O)N[C@@H](Cc3c[nH]c4ccccc34)C(=O)N[C@@H](CCCCN)C(=O)N[C@@H](Cc3cn(CC(=O)O)c4ccccc34)C(=O)N(C)[C@@H](CCCC)C(=O)N(C)[C@@H](CCCC)C(=O)N[C@@H](CCC(=O)O)C(=O)N2)C(N)=O)nn1)C(=O)O` [Example 14072], IC50 8.5 nM. Against it:
- CCCC[C@H]1C(=O)N(C)[C@@H](CCCC)C(=O)N[C@@H](CC(C)C)C(=O)N[C@H](C(=O)NCC(=O)N[C@H](CC(=O)O)C(=O)NCCCCCCCCCCC(=O)O)CSCC(=O)N[C@@H](Cc2ccc(O)cc2)C(=O)N(C)[C@@H](C)C(=O)N[C@@H](CC(N)=O)C(=O)N2CCC[C@H]2C(=O)N[C@@H](CN)C(=O)N[C@@H](CC(C)C)C(=O)N2C[C@H](O)C[C@H]2C(=O)N[C@@H](Cc2c[nH]c3ccccc23)C(=O)N[C@@H](CCN)C(=O)N[C@@H](Cc2cn(CC(=O)O)c3ccccc23)C(=O)N1C [Example 11101] ({CH2CO}-Y[NMeA]NP[Dap]L[Hyp]W[Dab][Trp(1-CH2COOH)][NMeNle][NMeNle]LCG[dD][Aun]-OH; thioether N-14) — 2.1-fold lower, 4.1 nM

Same assay, conditions: inhibition of PD-1-Ig binding to PD-L1-TVMV-His; value given as range class; read-out: HTRF IC50

First: CCCC[C@H]1C(=O)N(C)[C@@H](CCCC)C(=O)N[C@@H](CC(C)C)C(=O)N[C@H](C(=O)NCC(=O)NCC(=O)NCCCCCCCCCCCCCCCCC(=O)O)CSCC(=O)N[C@@H](Cc2ccc(O)cc2)C(=O)N(C)[C@@H](C)C(=O)N[C@@H](CC(N)=O)C(=O)N2CCC[C@H]2C(=O)N[C@@H](CN)C(=O)N[C@@H](CC(C)C)C(=O)N2C[C@H](O)C[C@H]2C(=O)N[C@@H](Cc2c[nH]c3ccccc23)C(=O)N[C@@H](CCN)C(=O)N[C@@H](Cc2cn(CC(=O)O)c3ccccc23)C(=O)N1C [Example 11189] ({CH2CO}-Y[NMeA]NP[Dap]L[Hyp]W[Dab][Trp(1-CH2COOH)][NMeNle][NMeNle]LCGG-{NH(CH2)16COOH}; thioether N-14)
Second: CCCC[C@H]1C(=O)N(C)[C@@H](CCCC)C(=O)N[C@@H](CC(C)C)C(=O)N[C@H](C(=O)NCC(=O)N[C@@H](Cc2cn(CCCNC(=O)CCCCCCCCCCCCCCCCC(=O)O)nn2)C(=O)O)CSCC(=O)N[C@@H](Cc2ccc(O)cc2)C(=O)N(C)[C@@H](C)C(=O)N[C@@H](CC(N)=O)C(=O)N2CCC[C@H]2C(=O)N[C@@H](CN)C(=O)N[C@@H](CC(C)C)C(=O)N2C[C@H](O)C[C@H]2C(=O)N[C@@H](Cc2c[nH]c3ccccc23)C(=O)N[C@@H](CCN)C(=O)N[C@@H](Cc2cn(CC(=O)O)c3ccccc23)C(=O)N1C [Example 14126]
The IC50 of the first is higher: 100 to 1600 nM for the first, 0.3 to 9.9 nM for the second. The second is the more potent here.

`CCCC[C@H]1C(=O)N(C)[C@@H](CCCC)C(=O)N[C@@H](CC(C)C)C(=O)N[C@H](C(=O)NCC(=O)NCC(=O)NCC(=O)NCCCCC(=O)O)CSCC(=O)N[C@@H](Cc2ccc(O)cc2)C(=O)N(C)[C@@H](C)C(=O)N[C@@H](CC(N)=O)C(=O)N2CCC[C@H]2C(=O)N[C@@H](CN)C(=O)N[C@@H](CC(C)C)C(=O)N2C[C@H](O)C[C@@H]2C(=O)N[C@@H](Cc2c[nH]c3ccccc23)C(=O)N[C@@H](CCN)C(=O)N[C@@H](Cc2cn(CC(=O)O)c3ccccc23)C(=O)N1C` [Example 11137] ({CH2CO}-Y[NMeA]NP[Dap]L[d(cisHyp)]W[Dab][Trp(1-CH2COOH)][NMeNle][NMeNle]LCGGG[Ava]-OH; thioether N-14) and `C#CC[C@H](NC(=O)CNC(=O)[C@@H]1CSCC(=O)N[C@@H](Cc2ccc(O)cc2)C(=O)N(C)[C@@H](C)C(=O)N[C@@H](CC(N)=O)C(=O)N2CCC[C@H]2C(=O)N[C@@H](CN)C(=O)N[C@@H](CC(C)C)C(=O)N2C[C@H](O)C[C@H]2C(=O)N[C@@H](Cc2c[nH]c3ccccc23)C(=O)N[C@@H](CO)C(=O)N[C@@H](Cc2cn(CC(=O)O)c3ccccc23)C(=O)N(C)[C@@H](CCCC)C(=O)N(C)[C@@H](CCCC)C(=O)N[C@@H](CC(C)C)C(=O)N1)C(N)=O` [INT 1300X] ({CH2CO}-Y[NMeA]NP[Dap]L[Hyp]WS[Trp(1-CH2COOH)][NMeNle][NMeNle]LCG[Pra]-NH2; thioether N-14) fall in the same range of IC50: 10 to 99 nM for the first, 10 to 99 nM for the second.

First: CCCC[C@H]1C(=O)N(C)[C@@H](CCCC)C(=O)N[C@@H](CC(C)C)C(=O)N[C@H](C(=O)NCC(=O)N[C@@H](CCC(=O)NCCCOCCOCCOCCCNC(=O)CC[C@H](NC(=O)CCCCCCCCCCCCCCCCC(=O)O)C(=O)O)C(=O)O)CSCC(=O)N[C@@H](Cc2ccc(F)cc2)C(=O)N2CCCC[C@H]2C(=O)N[C@@H](CC(=O)O)C(=O)N2CCC[C@H]2C(=O)N[C@@H](CN)C(=O)N[C@@H](CCC(=O)O)C(=O)N2C[C@H](O)C[C@H]2C(=O)N[C@@H](Cc2c[nH]c3ccccc23)C(=O)N[C@@H](CCN)C(=O)N[C@@H](Cc2cn(CC(=O)O)c3ccccc23)C(=O)N1C [Example 11263] ({CH2CO}-[Phe(4-F)][Pip]DP[Dap]E[Hyp]W[Dab][Trp(1-CH2COOH)][NMeNle][NMeNle]LCGE(X6)-OH; thioether N-14)
Second: CCCC[C@H]1C(=O)N(C)[C@@H](CCCC)C(=O)N[C@@H](CC(C)C)C(=O)N[C@H](C(=O)NCC(=O)N[C@@H](CCNC(=O)CC[C@H](NC(=O)CCCCCCCCCCCCCCCCC(=O)O)C(=O)O)C(=O)O)CSCC(=O)N[C@@H](Cc2ccc(OC)cc2)C(=O)N2CCCC[C@H]2C(=O)N[C@@H](CC(N)=O)C(=O)N2CCC[C@H]2C(=O)N[C@@H](Cc2c[nH]cn2)C(=O)N[C@@H](CC(C)C)C(=O)N2C[C@H](O)C[C@H]2C(=O)N[C@@H](Cc2c[nH]c3ccccc23)C(=O)N[C@@H](CCN)C(=O)N[C@@H](Cc2cn(CC(=O)O)c3ccccc23)C(=O)N1C [Example 13151] ({CH2CO}-Y(Me)[Pip]NPHL[Hyp]W[Dab][Trp(1-CH2COOH)][NMeNle][NMeNle]LCG[Dab]([γGlu-C18 diacid])-OH; thioether N-14)
The IC50 of the first is lower: 0.3 to 9.9 nM for the first, 10 to 99 nM for the second.

`CCCCCCCCCCCCCCCC(=O)NCCCC[C@H](NC(=O)[C@H](CO)NC(=O)CNC(=O)CNC(=O)CNC(=O)CNC(=O)[C@@H]1CSCC(=O)N[C@@H](Cc2ccc(O)cc2)C(=O)N(C)[C@@H](C)C(=O)N[C@@H](CC(N)=O)C(=O)N2CCC[C@H]2C(=O)N[C@@H](CCN)C(=O)N[C@@H](CC(C)C)C(=O)N2C[C@H](O)C[C@H]2C(=O)N[C@@H](Cc2c[nH]c3ccccc23)C(=O)N[C@@H](CO)C(=O)N[C@@H](Cc2c[nH]c3ccccc23)C(=O)N(C)[C@@H](CCCC)C(=O)N(C)[C@@H](CCCC)C(=O)N[C@@H](CCCNC(=N)N)C(=O)N1)C(N)=O` [Example 11022] ({CH2CO}-Y[NMeA]NP[Dab]L[Hyp]WSW[NMeNle][NMeNle]RCGGGGSK(Palmitoyl)-NH2; thioether N-14) and `CCCCCCCCCCCCCCCCNC(=O)[C@H](CC(=O)O)NC(=O)CNC(=O)CNC(=O)CNC(=O)[C@@H]1CSCC(=O)N[C@@H](Cc2ccc(O)cc2)C(=O)N(C)[C@@H](C)C(=O)N[C@@H](CC(=O)O)C(=O)N2CCC[C@H]2C(=O)N[C@@H](Cc2cnc[nH]2)C(=O)N[C@@H](CC(C)C)C(=O)N2C[C@H](O)C[C@H]2C(=O)N[C@@H](Cc2c[nH]c3ccccc23)C(=O)N[C@@H](CO)C(=O)N[C@@H](Cc2c[nH]c3ccccc23)C(=O)N(C)[C@@H](CCCC)C(=O)N(C)[C@@H](CCCC)C(=O)N[C@@H](CCCNC(=N)N)C(=O)N1` [Example 11120] ({CH2CO}-Y[NMeA]DPHL[Hyp]WSW[NMeNle][NMeNle]RCGGGD-NHhexadecyl; thioether N-14) fall in the same range of IC50: 100 to 1600 nM for the first, 100 to 1600 nM for the second.

`CCCC[C@H]1C(=O)N(C)[C@@H](CCCC)C(=O)N[C@@H](CC(=O)O)C(=O)N[C@H](C(=O)N[C@@H](Cc2cn(CCC(NC(=O)CCCCCCCCCCCCCCCCC(=O)O)C(=O)O)nn2)C(=O)O)CSCC(=O)N[C@@H](Cc2ccc(O)cc2)C(=O)N(C)[C@@H](C)C(=O)N[C@@H](CC(N)=O)C(=O)N2CCC[C@H]2C(=O)N[C@@H](CN)C(=O)N[C@@H](CC(C)C)C(=O)N2C[C@H](O)C[C@H]2C(=O)N[C@@H](Cc2c[nH]c3ccccc23)C(=O)N[C@@H](CCN)C(=O)N[C@@H](Cc2cn(CC(=O)O)c3ccccc23)C(=O)N1C` (stereo partly shown) [Example 13131] and `CCCC[C@H]1C(=O)N(C)[C@@H](CCCC)C(=O)N[C@@H](CC(C)C)C(=O)N[C@H](C(=O)NCCCCCCCCCCC(=O)O)CSCC(=O)N[C@@H](Cc2ccc(O)cc2)C(=O)N(C)[C@@H](C)C(=O)N[C@@H](CC(N)=O)C(=O)N2CCC[C@H]2C(=O)N[C@@H](CO)C(=O)N[C@@H](CCC(N)=O)C(=O)N2C[C@H](O)C[C@H]2C(=O)N[C@@H](Cc2c[nH]c3ccccc23)C(=O)N[C@@H](CO)C(=O)N[C@@H](Cc2cn(CC(=O)O)c3ccccc23)C(=O)N1C` [Example 11082] ({CH2CO}-Y[NMeA]NPSQ[Hyp]WS[Trp(1-CH2COOH)][NMeNle][NMeNle]LC[Aun]-OH; thioether N-14) fall in the same range of IC50: 10 to 99 nM for the first, 10 to 99 nM for the second.

`C#CC[C@H](NC(=O)CNC(=O)[C@@H]1CSCC(=O)N[C@@H](Cc2ccc(O)cc2)C(=O)N(C)[C@@H](C)C(=O)N[C@@H](CC(=O)O)C(=O)N2CCC[C@H]2C(=O)N[C@@H](Cc2c[nH]cn2)C(=O)N[C@@H](CCCCN)C(=O)N2C[C@H](O)C[C@H]2C(=O)N[C@@H](Cc2c[nH]c3ccccc23)C(=O)N[C@@H](CCCCN)C(=O)N[C@@H](Cc2cn(CC(=O)O)c3ccccc23)C(=O)N(C)[C@@H](CCCC)C(=O)N(C)[C@@H](CCCC)C(=O)N[C@@H](CCC(=O)O)C(=O)N1)C(=O)O` [INT 1300Y] ({CH2CO}-Y[NMeA]DPHK[Hyp]WK[Trp(1-CH2COOH)][NMeNle][NMeNle]ECG[Pra]-OH; thioether N-14) gave an IC50 of 0.3 to 9.9 nM.
